A word on the EC50: it is the concentration that produces a half-maximal response. Usually IC50 stands for the concentration at which inhibition is half-maximal.

The results in this text go back to patent US20230322846A9, “NEUROACTIVE STEROIDS AND THEIR METHODS OF USE” (SAGE THERAPEUTICS, INC., priority 2018, published 2023).

The target in test [1] is human GABAA receptors composed of the α1β2γ2 subunits (Homo sapiens (Human), UniProt P14867+P18507+P47870). The test is described as follows: α1β2γ2 SyncroPatch automated patch clamp assay. Type of test: cell-based. To be noted: for EC50: HEK cells, potentiation of submaximal GABA current, clamped at −120 mV; for α1β2γ2 EMAX: peak current after GABA+compound divided by peak current after GABA alone. The method, then: (§1) The SyncroPatch 384PE (Nanion, Germany) automated patch clamp platform was used to obtain recordings from human embryonic kidney cells stably expressing human GABAA receptors composed of the α1β2γ2 and α4β3δ subunits. Cells were bathed in an extracellular solution containing: 140 mM NaCl, 4 mM KCl, 2 mM CaCl2), 1 mM MgCl2, 10 mM HEPES, 5 mM glucose and 0.1% DMSO. Solution was maintained at pH 7.4 with NaOH and 300 mOsm/L. Chips with multi-hole (4×) medium resistance (2-3M) are used for the recombinant cell line experiments. Once harvested, cells are stored in extracellular solution set to 10° C. in the cell hotel with a minimum shaking speed of 200 rpm before addition to the chip at the beginning of each experiment. Whole cell patch clamp recordings were made using an intracellular solution containing: 90 mM KCl, 50 mM KF, 1.5 mM MgCl2, 11.1 mM EGTA and 10 mM HEPES, 2 mM NaATP, maintained at pH 7.2 with KOH. Currents are leak corrected (using P/2 leak correction protocol) and sampled at 5 kHz. Cells were clamped at −120 mV. After establishing a stable baseline, a submaximal concentration of GABA (3-5 μM for cells expressing α1β2γ2 and 10 μM for cells expressing […]) was applied at a rate of 10 μl/second, immediately followed by application of GABA+compound (10 μl/second) at a single concentration of compound per cell. Compounds were tested at six concentrations (0.029, 0.12, 0.47, 1.88, 7.5, and 30 μM) in n=8-12 cells per concentration. Compound effect was determined by dividing peak current amplitude after GABA+compound by peak current amplitude after GABA alone. EC50 and Emax values were determined from average values for each concentration.
Chain of human GABAA receptors composed of the α1β2γ2 subunits (P14867 28-456 limits assumed): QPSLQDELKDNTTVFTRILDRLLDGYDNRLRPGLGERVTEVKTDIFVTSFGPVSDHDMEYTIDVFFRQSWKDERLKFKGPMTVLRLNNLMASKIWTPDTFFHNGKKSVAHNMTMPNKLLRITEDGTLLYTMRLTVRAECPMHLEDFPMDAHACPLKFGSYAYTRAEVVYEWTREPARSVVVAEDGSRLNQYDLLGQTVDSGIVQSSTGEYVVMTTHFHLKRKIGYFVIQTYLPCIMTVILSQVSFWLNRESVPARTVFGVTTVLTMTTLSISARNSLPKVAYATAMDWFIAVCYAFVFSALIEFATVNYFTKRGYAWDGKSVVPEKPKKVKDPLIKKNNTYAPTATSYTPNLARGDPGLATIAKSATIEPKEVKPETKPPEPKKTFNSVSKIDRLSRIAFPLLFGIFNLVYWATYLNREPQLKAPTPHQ
Chain of human GABAA receptors composed of the α1β2γ2 subunits (P47870 25-512 limits assumed): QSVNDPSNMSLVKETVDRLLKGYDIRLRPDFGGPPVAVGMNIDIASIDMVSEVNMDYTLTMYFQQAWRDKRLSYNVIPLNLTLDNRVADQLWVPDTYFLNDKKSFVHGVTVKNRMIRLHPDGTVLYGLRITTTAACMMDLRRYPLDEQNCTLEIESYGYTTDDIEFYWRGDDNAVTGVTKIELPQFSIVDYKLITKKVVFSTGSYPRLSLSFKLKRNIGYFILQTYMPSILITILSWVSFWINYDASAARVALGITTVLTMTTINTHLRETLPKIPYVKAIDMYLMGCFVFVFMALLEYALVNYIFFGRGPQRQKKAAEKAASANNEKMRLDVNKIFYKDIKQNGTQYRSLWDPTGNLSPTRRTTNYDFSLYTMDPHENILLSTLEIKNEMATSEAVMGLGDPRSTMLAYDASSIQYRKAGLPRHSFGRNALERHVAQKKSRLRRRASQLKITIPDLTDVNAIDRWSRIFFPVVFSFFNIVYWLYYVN
Chain of human GABAA receptors composed of the α1β2γ2 subunits (P18507 40-475 limits assumed): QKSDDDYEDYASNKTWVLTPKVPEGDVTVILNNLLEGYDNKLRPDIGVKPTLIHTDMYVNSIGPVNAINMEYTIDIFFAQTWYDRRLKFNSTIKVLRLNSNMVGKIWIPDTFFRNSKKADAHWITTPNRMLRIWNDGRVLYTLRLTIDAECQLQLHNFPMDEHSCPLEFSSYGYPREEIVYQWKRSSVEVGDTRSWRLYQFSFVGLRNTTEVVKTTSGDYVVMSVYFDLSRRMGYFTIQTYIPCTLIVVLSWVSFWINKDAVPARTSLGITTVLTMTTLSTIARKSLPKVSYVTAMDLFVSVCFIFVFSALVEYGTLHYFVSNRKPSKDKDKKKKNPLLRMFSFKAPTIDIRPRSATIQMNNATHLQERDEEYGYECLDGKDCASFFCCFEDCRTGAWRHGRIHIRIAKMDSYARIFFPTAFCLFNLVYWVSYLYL
(Patch clamp records ionic current or voltage across a cell membrane.)

In test [2] the target is human GABAA receptors composed of the α4β3δ subunits (Homo sapiens (Human), UniProt O14764+P28472+P48169). The test is described as follows: α4β3δ SyncroPatch automated patch clamp assay. Type of test: cell-based. As to conditions: for EC50: HEK cells, potentiation of submaximal GABA current, clamped at −120 mV; for α4β3δ EMAX: peak current after GABA+compound divided by peak current after GABA alone. The method, then: as §1
Chain of human GABAA receptors composed of the α4β3δ subunits (P48169 36-554 limits assumed): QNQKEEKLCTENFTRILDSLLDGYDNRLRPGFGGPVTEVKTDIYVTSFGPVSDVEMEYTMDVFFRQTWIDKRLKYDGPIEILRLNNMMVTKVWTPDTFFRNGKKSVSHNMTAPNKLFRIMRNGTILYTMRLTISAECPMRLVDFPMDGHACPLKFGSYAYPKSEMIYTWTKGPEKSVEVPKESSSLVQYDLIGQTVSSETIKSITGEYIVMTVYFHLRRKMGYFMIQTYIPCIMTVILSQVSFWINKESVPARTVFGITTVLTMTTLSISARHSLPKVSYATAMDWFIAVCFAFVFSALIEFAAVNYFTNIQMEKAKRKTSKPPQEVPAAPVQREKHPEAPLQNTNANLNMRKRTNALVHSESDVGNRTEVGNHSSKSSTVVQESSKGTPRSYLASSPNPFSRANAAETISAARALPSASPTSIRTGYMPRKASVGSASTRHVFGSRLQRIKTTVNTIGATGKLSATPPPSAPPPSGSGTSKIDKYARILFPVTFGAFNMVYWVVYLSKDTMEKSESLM
Chain of human GABAA receptors composed of the α4β3δ subunits (P28472 26-473 limits assumed): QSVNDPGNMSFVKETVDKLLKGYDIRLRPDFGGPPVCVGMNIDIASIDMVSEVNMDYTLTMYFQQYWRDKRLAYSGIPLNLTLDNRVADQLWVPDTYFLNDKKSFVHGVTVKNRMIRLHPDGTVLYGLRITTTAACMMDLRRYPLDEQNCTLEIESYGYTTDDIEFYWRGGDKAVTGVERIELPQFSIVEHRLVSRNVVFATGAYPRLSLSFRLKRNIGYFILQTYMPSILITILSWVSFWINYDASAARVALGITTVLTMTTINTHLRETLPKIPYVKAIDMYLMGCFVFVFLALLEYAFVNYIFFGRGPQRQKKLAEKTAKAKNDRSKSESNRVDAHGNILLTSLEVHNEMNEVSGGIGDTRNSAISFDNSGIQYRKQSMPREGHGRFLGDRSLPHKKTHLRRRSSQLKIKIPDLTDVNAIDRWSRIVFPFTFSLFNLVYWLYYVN
Chain of human GABAA receptors composed of the α4β3δ subunits (O14764 17-452 limits assumed): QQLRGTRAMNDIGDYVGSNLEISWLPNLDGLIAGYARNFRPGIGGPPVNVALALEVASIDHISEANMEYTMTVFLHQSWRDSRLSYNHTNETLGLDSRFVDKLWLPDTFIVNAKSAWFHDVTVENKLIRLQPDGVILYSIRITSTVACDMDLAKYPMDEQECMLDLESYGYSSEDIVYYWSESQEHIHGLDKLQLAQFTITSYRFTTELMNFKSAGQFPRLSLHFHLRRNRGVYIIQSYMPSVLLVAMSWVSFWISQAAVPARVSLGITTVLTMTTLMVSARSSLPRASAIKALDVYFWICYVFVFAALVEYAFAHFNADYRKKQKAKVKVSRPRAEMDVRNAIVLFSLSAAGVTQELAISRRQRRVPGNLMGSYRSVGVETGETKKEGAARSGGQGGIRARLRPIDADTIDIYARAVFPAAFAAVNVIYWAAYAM

Test [3] deals with [35S]-TBPS binding, rat brain cortical membranes. The test is described as follows: Steroid inhibition of [35S]-TBPS binding. To be noted: 3 nM [35S]-TBPS, in the presence of 5 mM GABA. An outline of the steps: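 In the presence of […], compounds (DMSO 0.5% final) competed with 3 nM [35S]-TBPS for Sprague-Dawley rat cortical membranes, pH 7.4 phosphate buffer, 90 min, room temperature. Filtration and scintillation counting; specific binding defined by […]; IC50 and maximal inhibition fitted per experiment, averaged as mean ± SEM.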

Turning to `CCOC[C@@]1(O)CC[C@@]2(C)[C@H](CC[C@@H]3[C@@H]2CC[C@]2(C)[C@@H]([C@@H](C)Cn4nccc4C#N)CC[C@@H]32)C1` [Example 280, 1-((R)-2-((3R,5R,8R,9S,10S,13S,14S,17R)-3-(ethoxymethyl)-3-hydroxy-10,13-dimethylhexadecahydro-1H-cyclopenta[a]phenanthren-17-yl)propyl)-1H-pyrazole-5-carbonitrile], in test [1], the EC50 was less than 200 nM and the “α1β2γ2 EMAX” value is listed as “C (C indicates an Emax response ≥10)”. Moreover, in test [2], the EC50 was less than 200 nM and the “α4β3δ EMAX” value is on record as “B (B indicates an Emax response 30 to <45)”. In addition, the IC50 in test [3] was less than 100 nM.
With `CCOC[C@@]1(O)CC[C@H]2[C@H](CC[C@@H]3[C@@H]2CC[C@]2(C)[C@@H]([C@H](C)Cn4nccc4C#N)CC[C@@H]32)C1` [Example 286, 1-((S)-2-((3R,5R,8R,9R,10S,13S,14S,17R)-3-(ethoxymethyl)-3-hydroxy-13-methylhexadecahydro-1H-cyclopenta[a]phenanthren-17-yl)propyl)-1H-pyrazole-5-carbonitrile], in test [1], the EC50 was less than 200 nM and the “α1β2γ2 EMAX” value is listed as “B (B indicates an Emax response 8 to <10)”. Also, in test [2], the EC50 was in the range of 200 to 1000 nM and the “α4β3δ EMAX” value is listed as “A (A indicates an Emax response <30)”. In addition, in test [3], the IC50 is less than 100 nM.
The matching figures for `CCOC[C@@]1(O)CC[C@H]2[C@H](CC[C@@H]3[C@@H]2CC[C@]2(C)[C@@H]([C@H](C)Cn4ccc(C#N)n4)CC[C@@H]32)C1` [Example 287, 1-((S)-2-((3R,5R,8R,9R,10S,13S,14S,17R)-3-(ethoxymethyl)-3-hydroxy-13-methylhexadecahydro-1H-cyclopenta[a]phenanthren-17-yl)propyl)-1H-pyrazole-3-carbonitrile]: 200 to 1000 nM, “B (B indicates an Emax response 8 to <10)”, 200 to 1000 nM, “A (A indicates an Emax response <30)” and less than 100 nM.
The matching figures for `CCC[C@@]1(O)CC[C@H]2[C@H](CC[C@@H]3[C@@H]2CC[C@]2(C)[C@@H]([C@H](C)Cn4nnc(C)n4)CC[C@@H]32)C1` [Example 293, (3R,5R,8R,9R,10S,13S,14S,17R)-13-methyl-17-((S)-1-(5-methyl-2H-tetrazol-2-yl)propan-2-yl)-3-propylhexadecahydro-1H-cyclopenta[a]phenanthren-3-ol]: no less than 1000 nM, “A (A indicates an Emax response <8)”, 200 to 1000 nM, “A (A indicates an Emax response <30)” and less than 100 nM.
Regarding `CCC[C@@]1(O)CC[C@H]2[C@H](CC[C@@H]3[C@@H]2CC[C@]2(C)[C@@H]([C@@H](C)Cn4nnc(C)n4)CC[C@@H]32)C1` [Example 294, (3R,5R,8R,9R,10S,13S,14S,17R)-13-methyl-17-((R)-1-(5-methyl-2H-tetrazol-2-yl)propan-2-yl)-3-propylhexadecahydro-1H-cyclopenta[a]phenanthren-3-ol], in test [1], the EC50 is 200 to 1000 nM and the “α1β2γ2 EMAX” value is recorded as “C (C indicates an Emax response ≥10)”. For the same molecule, in test [2], the EC50 lay within 200 to 1000 nM and the “α4β3δ EMAX” value is “B (B indicates an Emax response 30 to <45)”. Besides, the IC50 in test [3] was less than 100 nM.
Consider `CC(C)C[C@@]1(O)CC[C@H]2[C@H](CC[C@@H]3[C@@H]2CC[C@]2(C)[C@@H]([C@@H](C)Cn4cc(C#N)cn4)CC[C@@H]32)C1` [Example 299, 1-((R)-2-((3S,5R,8R,9R,10S,13S,14S,17R)-3-hydroxy-3-isobutyl-13-methylhexadecahydro-1H-cyclopenta[a]phenanthren-17-yl)propyl)-1H-pyrazole-4-carbonitrile], for which, in test [1], the EC50 was no less than 1000 nM. Further, in test [2], the 50% effective concentration (EC50) was less than 200 nM and the “α4β3δ EMAX” value was “B (B indicates an Emax response 30 to <45)”. Moreover, the IC50 in test [3] was less than 100 nM.
For `C[C@@H](Cn1cc(C#N)cn1)[C@H]1CC[C@H]2[C@@H]3CC[C@@H]4C[C@@](O)(CC5CC5)CC[C@@H]4[C@H]3CC[C@]12C` [Example 303, 1-((R)-2-((3S,5R,8R,9R,10S,13S,14S,17R)-3-(cyclopropylmethyl)-3-hydroxy-13-methylhexadecahydro-1H-cyclopenta[a]phenanthren-17-yl)propyl)-1H-pyrazole-4-carbonitrile], in test [1], the EC50 is less than 200 nM and the “α1β2γ2 EMAX” value was “C (C indicates an Emax response ≥10)”. For the same molecule, in test [2], the EC50 is less than 200 nM and the “α4β3δ EMAX” value is reported as “B (B indicates an Emax response 30 to <45)”. The IC50 in test [3] is less than 100 nM.
On to `CCCC[C@@]1(O)CC[C@H]2[C@H](CC[C@@H]3[C@@H]2CC[C@]2(C)[C@@H]([C@@H](C)Cn4cc(C#N)cn4)CC[C@@H]32)C1` [Example 311, 1-((R)-2-((3R,5R,8R,9R,10S,13S,14S,17R)-3-butyl-3-hydroxy-13-methylhexadecahydro-1H-cyclopenta[a]phenanthren-17-yl)propyl)-1H-pyrazole-4-carbonitrile], for which, in test [1], the EC50 is less than 200 nM and the “α1β2γ2 EMAX” value is on record as “C (C indicates an Emax response ≥10)”. Also, in test [2], the EC50 lay in the range of 200 to 1000 nM and the “α4β3δ EMAX” value is “B (B indicates an Emax response 30 to <45)”. In test [3], the IC50 is less than 100 nM.
The matching figures for `CCC[C@@]1(O)CC[C@@]2(COC)[C@H](CC[C@H]3[C@@H]4CC[C@H]([C@H](C)Cn5nnc(C)n5)[C@@]4(C)CC[C@@H]32)C1` [Example 320, (3R,5R,8S,9S,10R,13S,14S,17R)-10-(methoxymethyl)-13-methyl-17-((S)-1-(5-methyl-2H-tetrazol-2-yl)propan-2-yl)-3-propylhexadecahydro-1H-cyclopenta[a]phenanthren-3-ol]: 200 to 1000 nM, “B (B indicates an Emax response 8 to <10)”, 200 to 1000 nM, “C (C indicates an Emax response ≥45)” and less than 100 nM.
The corresponding values for `CCC[C@@]1(O)CC[C@H]2[C@H](CC[C@@H]3[C@@H]2CC[C@]2(C)[C@@H]([C@H](C)Cn4nnnc4C)CC[C@@H]32)C1` [Example 323, (3R,5R,8R,9R,10S,13S,14S,17R)-13-methyl-17-(1-(5-methyl-1H-tetrazol-1-yl)propan-2-yl)-3-propylhexadecahydro-1H-cyclopenta[a]phenanthren-3-ol] are less than 200 nM, “C (C indicates an Emax response ≥10)”, 200 to 1000 nM, “B (B indicates an Emax response 30 to <45)” and less than 100 nM.
The corresponding values for `CCC[C@@]1(O)CC[C@H]2[C@@H](CC[C@@H]3[C@@H]2CC[C@]2(C)[C@@H]([C@@H](C)Cn4nnnc4C)CC[C@@H]32)C1` [Example 332, (3R,5S,8R,9R,10S,13S,14S,17R)-13-methyl-17-((R)-1-(5-methyl-1H-tetrazol-1-yl)propan-2-yl)-3-propylhexadecahydro-1H-cyclopenta[a]phenanthren-3-ol] are less than 200 nM, “A (A indicates an Emax response <8)”, 200 to 1000 nM, “A (A indicates an Emax response <30)” and 100 to 1000 nM.
